This passage reports IC50 results from ChEMBL document CHEMBL1201862, “PubChem BioAssay data set” (2004).

The IC50 is the concentration at which inhibition is half-maximal.

The assay concerns the target Envelope glycoprotein gp160 (Human immunodeficiency virus 1, UniProt Q6QLK5). The assay can be described thus: inhibitors of HIV fusion peptide binding, primary screen, biochemical, uHTS, fluorescence dequenching (AID 1986).

Calls of active or inactive are those of the source. Rule as the data show it: actives have a measured IC50 and inactives only a lower limit.

Envelope glycoprotein gp160, sequence (Q6QLK5 whole entry, the tested form may be a part): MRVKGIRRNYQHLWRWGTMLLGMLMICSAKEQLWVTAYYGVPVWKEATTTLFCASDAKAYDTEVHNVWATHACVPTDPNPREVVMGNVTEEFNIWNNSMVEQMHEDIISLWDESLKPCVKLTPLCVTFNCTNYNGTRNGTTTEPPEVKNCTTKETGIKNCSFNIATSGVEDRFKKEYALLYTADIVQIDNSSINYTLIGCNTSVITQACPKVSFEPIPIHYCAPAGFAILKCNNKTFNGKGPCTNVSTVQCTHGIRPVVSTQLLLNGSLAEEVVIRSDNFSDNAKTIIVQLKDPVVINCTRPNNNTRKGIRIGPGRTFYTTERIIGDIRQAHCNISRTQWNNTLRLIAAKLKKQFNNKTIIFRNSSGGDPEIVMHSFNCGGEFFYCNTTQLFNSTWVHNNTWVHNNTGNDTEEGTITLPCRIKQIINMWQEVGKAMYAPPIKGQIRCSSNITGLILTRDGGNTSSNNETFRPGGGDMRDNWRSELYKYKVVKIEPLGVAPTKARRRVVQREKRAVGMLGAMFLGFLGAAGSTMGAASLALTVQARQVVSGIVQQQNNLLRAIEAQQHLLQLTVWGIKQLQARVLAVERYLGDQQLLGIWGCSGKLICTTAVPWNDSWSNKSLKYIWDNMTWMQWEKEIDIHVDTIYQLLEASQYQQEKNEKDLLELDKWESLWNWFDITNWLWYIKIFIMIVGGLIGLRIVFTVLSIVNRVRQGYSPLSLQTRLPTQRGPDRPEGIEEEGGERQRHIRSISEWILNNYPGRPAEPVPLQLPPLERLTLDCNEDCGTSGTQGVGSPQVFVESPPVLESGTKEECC

`COc1cc(/C=C2\SC(=O)N(CC(=O)Nc3cccc(C)c3)C2=O)cc([N+](=O)[O-])c1O`: the IC50 is 23.1 µM (active).
